Experimental findings from PubChem BioAssay AID1918933 (Molecular Pharmacology Branch, DTP, NCI, 2023) are described below.

The structures appear in SMILES notation. pIC50: −log10 of the molar value. Where “and” joins values, the source holds several entries; their conditions need not be identical. Identical values can stand only once.

For this test, the system named is 186277-243-T-J2-PDC complex spheroid viability. The experiment in a line: Anticancer human tumor 186277-243-T-J2-PDC patient-derived colon adenocarcinoma cell line growth inhibition. The conditions noted are these: for viability, T/C: stronger effect = lower value. In a few lines:
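Drug combinations with the LSD1 inhibitor iadademstat tested on tumor cells co-cultured as spheroids with endothelial cells and mesenchymal stem cells. Concentrations descended in half-log increments from clinical Cmax or 10 microM.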

Setting [1] is: curve of first compound, second compound 0.1 µM.
[2] abbreviates: curve of first compound, second compound 0.316 µM.
Where [3] appears, read: curve of first compound, second compound 1 µM.
[4] abbreviates: curve of first compound, second compound 3.16 µM.
Where [5] appears, read: curve of first compound, second compound 10 µM.
The mark [6] stands for this setting: second compound 0.1 µM, first compound 0.0316 µM.
The mark [7] stands for this setting: second compound 0.1 µM, first compound 0.1 µM.
Setting [8] is: second compound 0.1 µM, first compound 0.316 µM.
The mark [9] stands for this setting: second compound 0.1 µM, first compound 1 µM.
The mark [10] stands for this setting: second compound 0.316 µM, first compound 0.0316 µM.
Setting [11] is: second compound 0.316 µM, first compound 0.1 µM.
Where [12] appears, read: second compound 0.316 µM, first compound 0.316 µM.
The mark [13] stands for this setting: second compound 0.316 µM, first compound 1 µM.
Setting [14] is: second compound 1 µM, first compound 0.0316 µM.
Setting [15] is: second compound 1 µM, first compound 0.1 µM.
Where [16] appears, read: second compound 1 µM, first compound 0.316 µM.
The mark [17] stands for this setting: second compound 1 µM, first compound 1 µM.
The mark [18] stands for this setting: second compound 3.16 µM, first compound 0.0316 µM.
The mark [19] stands for this setting: second compound 3.16 µM, first compound 0.1 µM.
[20] abbreviates: second compound 3.16 µM, first compound 0.316 µM.
[21] abbreviates: second compound 3.16 µM, first compound 1 µM.
Where [22] appears, read: second compound 10 µM, first compound 0.0316 µM.
Where [23] appears, read: second compound 10 µM, first compound 0.1 µM.
Setting [24] is: second compound 10 µM, first compound 0.316 µM.
Setting [25] is: second compound 10 µM, first compound 1 µM.
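Also: 7 day exposure to compounds.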
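For viability, T/C in this document: 100% = DMSO vehicle control viability.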

Take `Nc1ncn(C2CC(O)C(CO)O2)c(=O)n1` (stereo not drawn) + NC1CCC(NC2CC2c2ccccc2)CC1: the pIC50 is, setting by setting: under setting [1], below 6.00; under setting [2], below 6.00; under setting [3], below 6.00; under setting [4], below 6.00; under setting [5], below 6.00. Moreover, the viability, T/C is 97.6% (second compound 0.1 µM, first compound 0.00316 µM); 110% (second compound 0.1 µM, first compound 0.01 µM); 98.2% under setting [6]; 129% under setting [7]; 139% under setting [8]; 142% under setting [9]. The viability, T/C is 95.9% (second compound 0.316 µM, first compound 0.00316 µM); 111% (second compound 0.316 µM, first compound 0.01 µM); 107% under setting [10]; 127% under setting [11]; 141% under setting [12]; 138% under setting [13]. Moreover, the viability, T/C is 102% (second compound 1 µM, first compound 0.00316 µM); 119% (second compound 1 µM, first compound 0.01 µM); 111% under setting [14]; 130% under setting [15]; 127% under setting [16]; 135% under setting [17]. Moreover, the viability, T/C (second compound 3.16 µM, first compound 0.00316 µM) was 101%; the viability, T/C (second compound 3.16 µM, first compound 0.01 µM) was 108%; the viability, T/C under setting [18] was 112%; the viability, T/C under setting [19] is 137%; the viability, T/C under setting [20] was 151%; the viability, T/C under setting [21] was 138%. For the same molecule, the viability, T/C is 113% (second compound 10 µM, first compound 0.00316 µM); 105% (second compound 10 µM, first compound 0.01 µM); 116% under setting [22]; 140% under setting [23]; 140% under setting [24]; 132% under setting [25].
Consider `CC1(C)CCC(CN2CCN(c3ccc(C(=O)NS(=O)(=O)c4ccc(NCC5CCOCC5)c([N+](=O)[O-])c4)c(Oc4cnc5[nH]ccc5c4)c3)CC2)=C(c2ccc(Cl)cc2)C1`, for which the viability, T/C runs as follows: (compound 0.0316 µM) 100% and 109%; (compound 0.1 µM) 108% and 90.4%; (compound 0.316 µM) 93% and 94.6%; (compound 1 µM) 95.7% and 97.7%; (compound 3.16 µM) 52.1% and 28.3%; (compound 10 µM) 8.65% and 0.19%. The pIC50 (curve of compound) is 5.47 and 5.66.
`O=C(c1cc(Cc2n[nH]c(=O)c3ccccc23)ccc1F)N1CCN(C(=O)C2CC2)CC1`: the viability, T/C (compound 0.0316 µM) is 100% and 90.9%; the viability, T/C (compound 0.1 µM) was 102% and 106%; the viability, T/C (compound 0.316 µM) is 105% and 103%; the viability, T/C (compound 1 µM) was 93.5% and 95.7%; the viability, T/C (compound 3.16 µM) is 69.7% and 113%; the viability, T/C (compound 10 µM) is 54.8% and 86.6%. For the same molecule, the pIC50 (curve of compound) was below 5.00.
As for `O=C(C=Cn1cnc(-c2cc(C(F)(F)F)cc(C(F)(F)F)c2)n1)NNc1cnccn1`, the viability, T/C was 98.1% and 93.5% (compound 0.00316 µM); 85.8% and 106% (compound 0.01 µM); 23.5% and 84.3% (compound 0.0316 µM); 9.4% and 15.8% (compound 0.1 µM); 5.65% and 4.97% (compound 0.316 µM); 0.55% and 2.09% (compound 1 µM). Moreover, for the setting “curve of compound”, the pIC50 is 7.71 and 7.25.
Consider `CC1(C)CCC(CN2CCN(c3ccc(C(=O)NS(=O)(=O)c4ccc(NCC5CCOCC5)c([N+](=O)[O-])c4)c(Oc4cnc5[nH]ccc5c4)c3)CC2)=C(c2ccc(Cl)cc2)C1` + NC1CCC(NC2CC2c2ccccc2)CC1, for which the negative logarithm of the IC50 (pIC50) by setting is: under setting [1], 5.31; under setting [2], 5.30; under setting [3], 5.29; under setting [4], 5.30; under setting [5], 5.34. Also, the viability, T/C runs as follows: under setting [6], 92%; under setting [7], 114%; under setting [8], 101%; under setting [9], 97.7%; (second compound 0.1 µM, first compound 3.16 µM) 73.5%; (second compound 0.1 µM, first compound 10 µM) 12%. Besides, the viability, T/C runs as follows: under setting [10], 106%; under setting [11], 117%; under setting [12], 99.4%; under setting [13], 109%; (second compound 0.316 µM, first compound 3.16 µM) 74.9%; (second compound 0.316 µM, first compound 10 µM) 11.5%. Moreover, the viability, T/C by setting is: under setting [14], 100%; under setting [15], 105%; under setting [16], 106%; under setting [17], 101%; (second compound 1 µM, first compound 3.16 µM) 77.9%; (second compound 1 µM, first compound 10 µM) 11.3%. Moreover, the viability, T/C reads like this: under setting [18], 107%; under setting [19], 107%; under setting [20], 115%; under setting [21], 95.8%; (second compound 3.16 µM, first compound 3.16 µM) 79.2%; (second compound 3.16 µM, first compound 10 µM) 8.73%. In addition, the viability, T/C runs as follows: under setting [22], 98.9%; under setting [23], 107%; under setting [24], 96.6%; under setting [25], 97.6%; (second compound 10 µM, first compound 3.16 µM) 69.1%; (second compound 10 µM, first compound 10 µM) 9.39%.
Regarding `Nc1ccccc1NC(=O)c1ccc(CNC(=O)OCc2cccnc2)cc1`, the viability, T/C runs as follows: (compound 0.00949 µM) 99.8% and 104%; (compound 0.03 µM) 99.2% and 98.5%; (compound 0.0949 µM) 102% and 106%; (compound 0.3 µM) 88.2% and 103%; (compound 0.949 µM) 64.4% and 20.6%; (compound 3 µM) 14.5% and 1.27%. Besides, the pIC50 (curve of compound) is 5.88 and 6.20.
